# Measurements from US8309546B2, “Morpholinopurine derivatives” (Daiichi Sankyo Company, Limited, priority 2008, dated 2012).
# Where “and” joins values, the source holds several entries; their conditions need not be identical. Equal values may be shown once.
# Experiments:
# [1] = test system: human ovary cancer cell strain IGROV1; assay: Cell growth inhibition test (MTT), IGROV1; type: cell-based; details: IGROV-1, 72 h, IGROV1, 3 days culture, read-out: concentration exhibiting anti-cell effect (GI50)
# Procedure, shortened: (§1)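 Each cell strain is exposed to serially diluted compound for 3 days (37° C, 5% CO2), added one day after seeding at 5000 (AN3CA, HT29) or 1000 (IGROV1) cells/well. Living cells are quantified by MTT reduction over 4 h, absorbance at 540 nm, giving GI50 at 50% growth rate.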
# [2] = test system: S6 (serine 235 and 236) phosphorylation in AN3CA tumor; assay: S6 phosphorylation inhibition assay in xenograft; type: in vivo, female nude mouse; details: Mus musculus, AN3-CA, oral, 6 hr after dosing
# Procedure: (§2) A tumor section was prepared from a human endometrial cancer cell strain AN3CA tumor mass formed in a female nude mouse as subcutaneously transplanted tumor and a xenograft model was prepared by subcutaneously transplanting the tumor to a female nude mouse. The test compound at a predetermined concentration was orally administered. After a predetermined time, the anesthetized mouse was exsanguinated to death, and a tumor mass was isolated. The tumor mass was crushed using a lysis buffer containing inhibitors of proteases and dephosphorylating enzymes (Cell Signaling Technology, Inc.) and the supernatant was separated by centrifugation to obtain a tumor extract. The protein content of the tumor extract was measured using DC Protein Assay Kit (Bio-Rad Laboratories, Inc.) and phosphorylation conditions of Akt (threonine 308) and S6 (serine 235 and 236) were analyzed by a usual technique of western blotting using tumor extracts containing the same amount of protein. The primary antibody and the secondary antibody used for detecting each molecule were rabbit anti-phospho-Akt(T308) antibody and HRP-labeled goat anti-rabbit IgG antibody or mouse anti-phospho-S6(S235/236) antibody and HRP-labeled sheep anti-mouse IgG antibody.
# (§3) The signal intensity detected using an image analyzer Typhoon 9400 (GE Healthcare) was quantified, and the phosphorylation inhibition rate (%) was calculated by the following formula. Phosphorylation inhibitory activity (%) of Akt and S6 after treatment with test compound=100−100×(B/A) A: Signal intensity derived from phosphorylated protein in tumor mass isolated from mouse untreated with test compound B: Signal intensity derived from phosphorylated protein in tumor mass isolated from mouse treated with test compound
# [3] = test system: Akt (threonine 308) phosphorylation in AN3CA tumor; assay: Akt phosphorylation inhibition assay in xenograft; type: in vivo, female nude mouse; details: Mus musculus, AN3-CA, oral, 6 hr after dosing
# Procedure: as §2, §3
# [4] = test system: human colon cancer cell strain HT29; assay: Cell growth inhibition test (MTT), HT29; type: cell-based; details: HT-29, 72 h, HT29, 3 days culture, read-out: concentration exhibiting anti-cell effect (GI50)
# Procedure, shortened: as §1
# [5] = test system: human endometrial cancer cell strain AN3CA; assay: Cell growth inhibition test (MTT), AN3CA; type: cell-based; details: AN3-CA, 72 h, 3 days culture, read-out: concentration exhibiting anti-cell effect (GI50)
# Procedure, shortened: as §1
# [6] = target: PI3Kα (Homo sapiens, UniProt P42336); assay: PI3K kinase activity inhibition assay; type: biochemical; details: Kinase-Glo Plus ATP detection, read-out: IC50 against PI3K
# Procedure, shortened: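 PI3Kα (50 nM solution) was reacted with 30 μM ATP and 45 μM PIP2 solutions, each in HEPES pH 7.4 with MgCl2 and DTT, for 2 h at room temperature. Remaining ATP was measured by Kinase-Glo Plus luminescence, and inhibition was derived from ATP consumed. IC50 was taken from curve fitting of the serial dilutions.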
# [7] = test system: human endometrial cancer cell strain AN3CA tumor; assay: Anti-tumor effect assay using mouse subcutaneous transplantation model; type: in vivo, female nude mouse; details: AN3-CA, oral, tumor weight vs negative control, read-out: Anti-tumor effect (tumor growth inhibition rate)
# Procedure: A tumor section was prepared from a human endometrial cancer cell strain AN3CA tumor mass formed in a female nude mouse as a subcutaneously transplanted tumor and then a xenograft model was prepared by transplanting the tumor section into female nude mouse. Tumor-bearing mice having an estimated tumor volume (long diameter×short diameter×short diameter/2) of 80 to 200 mm^3 were divided, so that there should be no significant difference in the mean estimated tumor volume and body weight as compared with the negative control group to perform a test. The test compound was orally administered at a predetermined dose for 8 consecutive days. On the following day of the final administration day, tumor-bearing mice were anesthetized and exsanguinated to death and a tumor mass was isolated to measure tumor weight (the compounds of Examples 1, 3, 6, 8, 11, 12, and 14). Furthermore, as a similar test, the test compound was orally administered for 5 consecutive days, animals were sacrificed on the final administration day, and tumor weight was measured (the compounds of Examples 60, 63, 75, 77, 79, 89, 92, 107, 108, 109, 110, and 127).
# In all the tests, anti-tumor effect was calculated by the following formula. {1−(tumor weight in compound treatment group/tumor weight in negative control group)}×100
# [8] = target: T1, human mTOR (His-tagged mTOR (1362C)) (Homo sapiens, UniProt P42345); assay: mTOR kinase activity inhibition assay; type: biochemical; details: HTRF, read-out: IC50 against mTOR
# T1 construct: the 1362 to 2549 amino acid portion on the C terminus side of human mTOR; His tag (N); made in house
# Procedure, shortened: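 Crude His-tagged mTOR (aa 1362–2549) from stable HEK293 cells, with 8 μg/ml biotinylated peptide in 50 mM HEPES pH 7.5, 20 mM MnCl2; compound diluted in 20 μM ATP solution, reaction 3 h at room temperature. Phospho-peptide detected by HTRF (anti-phospho-S6K Thr389 cryptate/streptavidin-XL665, overnight at 4°C), 665/620 nm ratio. IC50 derived from curve fit of % inhibition.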
# Sequence of PI3Kα (P42336 whole entry, species assumed): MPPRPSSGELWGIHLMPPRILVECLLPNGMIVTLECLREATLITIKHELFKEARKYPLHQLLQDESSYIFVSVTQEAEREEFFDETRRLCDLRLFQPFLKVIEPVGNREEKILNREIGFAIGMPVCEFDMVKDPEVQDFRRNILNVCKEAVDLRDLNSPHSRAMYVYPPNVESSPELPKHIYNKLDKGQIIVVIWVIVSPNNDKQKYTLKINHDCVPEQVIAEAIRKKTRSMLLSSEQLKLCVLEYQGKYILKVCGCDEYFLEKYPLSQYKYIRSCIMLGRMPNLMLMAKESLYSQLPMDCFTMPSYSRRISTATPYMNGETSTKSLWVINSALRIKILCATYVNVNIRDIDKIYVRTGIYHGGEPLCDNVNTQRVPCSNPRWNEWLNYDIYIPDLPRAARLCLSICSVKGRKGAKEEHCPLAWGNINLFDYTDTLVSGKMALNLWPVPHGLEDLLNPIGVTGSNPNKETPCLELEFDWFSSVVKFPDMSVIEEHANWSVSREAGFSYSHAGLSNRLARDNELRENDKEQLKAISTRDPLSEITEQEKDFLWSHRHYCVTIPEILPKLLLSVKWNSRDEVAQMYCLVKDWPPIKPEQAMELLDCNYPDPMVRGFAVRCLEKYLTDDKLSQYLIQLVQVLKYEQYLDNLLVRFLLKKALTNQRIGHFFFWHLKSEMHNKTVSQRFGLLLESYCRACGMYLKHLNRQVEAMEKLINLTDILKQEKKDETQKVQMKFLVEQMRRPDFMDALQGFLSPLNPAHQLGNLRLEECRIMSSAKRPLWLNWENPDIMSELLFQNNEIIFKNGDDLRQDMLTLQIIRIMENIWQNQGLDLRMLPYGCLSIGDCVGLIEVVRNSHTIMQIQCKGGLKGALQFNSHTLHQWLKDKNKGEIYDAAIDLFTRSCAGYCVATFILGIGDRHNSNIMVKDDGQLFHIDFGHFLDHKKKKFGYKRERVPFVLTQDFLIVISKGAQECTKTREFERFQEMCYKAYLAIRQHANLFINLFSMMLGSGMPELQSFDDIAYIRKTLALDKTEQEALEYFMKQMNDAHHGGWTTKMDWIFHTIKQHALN
# Sequence of PI3Kα (P27986 whole entry partner, species assumed): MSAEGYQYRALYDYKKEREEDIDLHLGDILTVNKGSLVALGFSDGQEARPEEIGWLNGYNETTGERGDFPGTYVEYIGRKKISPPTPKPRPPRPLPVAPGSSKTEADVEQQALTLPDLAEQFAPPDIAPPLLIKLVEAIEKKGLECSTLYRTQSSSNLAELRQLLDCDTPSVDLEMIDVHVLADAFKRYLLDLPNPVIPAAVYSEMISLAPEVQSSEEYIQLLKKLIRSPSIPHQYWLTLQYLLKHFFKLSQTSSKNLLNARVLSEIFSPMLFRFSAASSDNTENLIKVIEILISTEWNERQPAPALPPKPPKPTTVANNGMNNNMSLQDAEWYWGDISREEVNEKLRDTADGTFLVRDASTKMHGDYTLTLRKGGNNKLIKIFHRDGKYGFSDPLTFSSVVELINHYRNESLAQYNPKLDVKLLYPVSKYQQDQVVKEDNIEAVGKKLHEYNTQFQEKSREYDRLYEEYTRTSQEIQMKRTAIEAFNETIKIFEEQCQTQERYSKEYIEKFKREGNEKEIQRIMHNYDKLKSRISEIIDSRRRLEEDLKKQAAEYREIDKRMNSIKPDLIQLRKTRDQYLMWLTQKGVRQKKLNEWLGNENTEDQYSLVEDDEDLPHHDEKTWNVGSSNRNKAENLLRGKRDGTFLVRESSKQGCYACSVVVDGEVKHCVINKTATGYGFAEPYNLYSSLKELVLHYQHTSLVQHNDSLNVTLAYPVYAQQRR
# T1 sequence (P42345 1362-2549): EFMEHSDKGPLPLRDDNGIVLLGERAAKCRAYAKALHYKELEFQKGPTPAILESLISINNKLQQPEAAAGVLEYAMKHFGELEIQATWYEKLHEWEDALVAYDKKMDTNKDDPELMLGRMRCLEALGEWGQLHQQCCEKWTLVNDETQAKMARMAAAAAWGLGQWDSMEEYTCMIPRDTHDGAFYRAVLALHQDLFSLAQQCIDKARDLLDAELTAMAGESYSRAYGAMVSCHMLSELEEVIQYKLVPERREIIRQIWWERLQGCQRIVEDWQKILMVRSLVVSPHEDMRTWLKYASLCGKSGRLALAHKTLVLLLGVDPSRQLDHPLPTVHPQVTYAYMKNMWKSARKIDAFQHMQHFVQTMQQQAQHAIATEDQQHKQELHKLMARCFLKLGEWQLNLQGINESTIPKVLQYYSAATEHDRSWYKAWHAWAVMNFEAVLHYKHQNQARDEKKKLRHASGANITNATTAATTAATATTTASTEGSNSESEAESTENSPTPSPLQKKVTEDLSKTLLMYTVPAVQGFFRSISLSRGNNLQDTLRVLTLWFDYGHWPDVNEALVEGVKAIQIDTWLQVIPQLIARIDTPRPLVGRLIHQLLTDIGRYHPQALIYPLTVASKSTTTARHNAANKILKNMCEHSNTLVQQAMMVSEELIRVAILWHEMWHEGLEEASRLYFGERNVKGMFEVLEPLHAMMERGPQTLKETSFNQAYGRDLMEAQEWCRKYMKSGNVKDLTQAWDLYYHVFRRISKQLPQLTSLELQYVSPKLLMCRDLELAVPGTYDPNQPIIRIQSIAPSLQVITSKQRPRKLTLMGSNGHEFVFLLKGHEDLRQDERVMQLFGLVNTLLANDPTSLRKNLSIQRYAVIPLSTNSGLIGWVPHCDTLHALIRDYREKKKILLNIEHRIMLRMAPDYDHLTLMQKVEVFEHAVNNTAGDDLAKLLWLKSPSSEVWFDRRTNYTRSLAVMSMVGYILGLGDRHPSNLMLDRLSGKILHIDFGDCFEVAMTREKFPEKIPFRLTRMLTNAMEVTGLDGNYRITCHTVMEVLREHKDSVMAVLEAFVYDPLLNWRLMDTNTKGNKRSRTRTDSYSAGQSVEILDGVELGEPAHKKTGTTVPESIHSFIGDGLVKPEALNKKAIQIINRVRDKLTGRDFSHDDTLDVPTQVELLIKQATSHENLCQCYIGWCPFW
GI50 [1],GI50 [4],GI50 [5],IC50 [6],IC50 [8],Structure (SMILES),inhibition at 10 mg/kg [2],inhibition at 10 mg/kg [3],"inhibition in vivo at 10 mg/kg/day ([7]; 10 mg/kg/day, 8 or 5 consecutive days depending on compound)","inhibition in vivo at 20 mg/kg/day ([7]; 20 mg/kg/day, consecutive days)"
≤ 5 µM,≤ 5 µM,≤ 5 µM,< 0.01 µM,,"CC(C)Cn1c(N2CCN(C(=O)C[C@H](C)O)CC2)nc2c(N3CCOC[C@@H]3C)nc(-c3cnc(N)nc3)nc21 [Example 133, (2S)-4-(4-[2-(2-Aminopyrimidin-5-yl)-9-isobutyl-6-[(3S)-3-methylmorpholin-4-yl]-9H-purin-8-yl]piperazin-1-yl)-4-oxobutan-2-ol]",> 90%,> 60%,,
≤ 5 µM,≤ 5 µM,≤ 5 µM,0.01 to 0.02 µM and 0.02 to 0.05 µM,,"C[C@@H]1CN(c2nc3c(N4CCOCC4)nc(-c4cnc(N)nc4)nc3n2CC2CC2)C[C@H](C)N1 [Example 12, 5-{9-(Cyclopropylmethyl)-8-(cis-3,5-dimethylpiperazin-1-yl)-6-morpholin-4-yl-9H-purin-2-yl}pyrimidin-2-amine]",,,61%,71%
≤ 5 µM,≤ 5 µM,≤ 5 µM,< 0.01 µM,< 0.01 µM,"C[C@@H]1CN(c2nc3c(N4CCOCC4)nc(-c4cnc(N)nc4)nc3n2CC(F)(F)F)CCN1C(=O)CO [Example 126, 2-{(2R)-4-[2-(2-Aminopyrimidin-5-yl)-6-morpholin-4-yl-9-(2,2,2-trifluoroethyl)-9H-purin-8-yl]-2-methylpiperazin-1-yl}-2-oxoethanol]",,,,
≤ 5 µM,≤ 5 µM,≤ 5 µM,0.01 to 0.02 µM,0.1 to 0.5 µM,"CN(C)CCNc1nc2c(N3CCOCC3)nc(-c3cnc(N)nc3)nc2n1CC1CC1 [Example 28, N′-[2-(2-Aminopyrimidin-5-yl)-9-(cyclopropylmethyl)-6-morpholin-4-yl-9H-purin-8-yl]-N,N-dimethylethane-1,2-diamine]",,,,
